Results on eight molecules are retold here after paper PMC11317875 (Chemical Science, 2024).

For assay [1], the system named is Mycobacterium tuberculosis. In words: F-Tre uptake at a single time point, HPAEC-PAD of cytosolic extracts. In kind it is cell-based. Conditions: for uptake / accumulation in Mtb cells: 0-200 μM probe, ion chromatography of cytosolic extracts; for Peak area of F-Tre peak: HPAEC trace.
For assay [2], the system named is Mycobacterium tuberculosis. In words: Time dependent F-Tre uptake, HPAEC-PAD of cytosolic extracts. In kind it is cell-based. Conditions: for accumulation rate: 100 μM probe, cytosolic extracts; for Mtb cytosolic concentration: 100 µM probe; for saturation of uptake: up to the 8 hour timepoint. On the procedure: lyophilised, resuspended in 1 mL 18 MΩ H2O and filtered through a 10-kDa molecular weight cut-off centrifuge filter (Amicon) and the filtrate analysed. HPAEC-PAD was performed on a Dionex ICS5000+ system with a CarboPac PA-20 analytical column (3 mm x 150 mm) and PA-20 guard column (3 mm x 30 mm) kept at 20 °C. Pulsed amperometry with standard quadrupole waveform was used for detection. The system was equipped with an autosampler that was set up to inject 10 μL sample volumes. Multistep gradient […]
Chromeleon 7 software (Dionex) was used for data processing.
Table S11: High performance anion exchange chromatography KOH elution gradient for F-Tre analysis Time (min) KOH conc. (mM) Flow rate (mL/min)
To quantify uptake, the peak area of 2F-Tre, 3F-Tre and 6F-Tre standards at varying concentrations were measured (Chromeleon 7 software). The peak area was plotted against concentration and simple linear regression was plotted. To determine the concentration of F-Tre analogues in cytosolic samples the area of the peaks of interest was measured (Chromeleon 7 software) and the concentration determined from the calibration […]
Time dependent F-Tre uptake
M. tuberculosis was grown to an OD600 of 0.8, then 2F-Tre, 3F-Tre, 4F-Tre or 6F-Tre were added to a final concentration of 100 µM. Controls with the equivalent volume of water or equivalent concentration of trehalose were also prepared. 5 mL aliquots were taken at T=0, 0.5, 1, 1.5, 2, 3, 4, 6, 8 h and the cells were harvested by centrifugation (2,916 x g, 5 min, 22 ° C) and washed (5 mL PBST) three times. The pellets were then resuspended in 1 mL H2O and lysed by mechanical disruption using 0.1 mm zirconia/silica beads (BioSpec Products) on a FastPrep (MP Biomedicals) ribolyser (4 x 45 s cycles with 90 s on ice in between).
Samples were then centrifuged (16,200 x g, 10 min, 22 °C) and the supernatant collected, lyophilised, resuspended in 1 mL 18 MΩ H2O and filtered through a 10-kDa molecular weight cut-off centrifuge filter (Amicon). The filtrate was analysed by HPAEC-PAD and quantified as described above.

In assay [3] the test system is Wild-type Mycobacterium bovis BCG. The class given is cell-based. Conditions: 100 μM probe.
Assay [4] has as its system Mtb. The class given is cell-based, Mycobacterium tuberculosis. Conditions: for new spots in the lipid extracts (TLC) / additional band in the TDM region (TLC) / additional lower polarity bands than TMM (TLC): 100 μM probe; for additional band in the TDM region (TLC) / additional lower polarity bands than TMM (TLC): Fig. 8 shows Mtb and M. bovis BCG.
For assay [5], the system named is M. bovis BCG. In kind it is cell-based, Mycobacterium bovis BCG. Conditions: for new spots in the lipid extracts (TLC): 100 μM probe.
Assay [6] has as its system Mycobacterium tuberculosis. The assay can be described thus: Ion chromatography of hydrolysed lipid extracts of F-Tre labelled Mtb. The class given is cell-based.
For assay [7], the target named is T1, LpqY (Mycolicibacterium thermoresistibile, UniProt G7CES0). The assay can be described thus: Microscale thermophoresis (MST) binding to LpqY. Conditions: for fold weaker binding to LpqY: compared with 3F-Tre, 6F-Tre and unmodified trehalose. In general terms: In MST a laser heats a spot of the sample, and binding alters the fluorescence response.
Experimental: Microscale Thermophoresis
Mtr LpqY (2.6 μM) was labelled with the amine reactive RED-NHS dye (3 μM) (second generation,
NanoTemper Technologies). Following incubation in the dark for 30 min with shaking (300 rpm, room
temperature), excess dye was removed using a Zeba desalting spin column (7KMWCO).
analogues were prepared in PBS containing 0.05% Tween 20, and the final concentration of the protein in the
assay was 500 nM. The samples were loaded into the MonoLith NT.115 standard treated capillaries and
incubated for 10 min before analysis using the Monolith NT.115 instrument (NanoTemper Technologies) at
The target in assay [8] is T1, LpqY. Set-up: His-SUMO (N, cleaved yes); made in house; host or cells: E. coli BL21 (DE3). Conditions: LpqY-azide-trehalose binding; cited from earlier work.

For orientation: Kd means the equilibrium constant for the complex coming apart.

Like-named read-outs stand apart in the source and are kept apart here.

T1 sequence (G7CES0 29-471): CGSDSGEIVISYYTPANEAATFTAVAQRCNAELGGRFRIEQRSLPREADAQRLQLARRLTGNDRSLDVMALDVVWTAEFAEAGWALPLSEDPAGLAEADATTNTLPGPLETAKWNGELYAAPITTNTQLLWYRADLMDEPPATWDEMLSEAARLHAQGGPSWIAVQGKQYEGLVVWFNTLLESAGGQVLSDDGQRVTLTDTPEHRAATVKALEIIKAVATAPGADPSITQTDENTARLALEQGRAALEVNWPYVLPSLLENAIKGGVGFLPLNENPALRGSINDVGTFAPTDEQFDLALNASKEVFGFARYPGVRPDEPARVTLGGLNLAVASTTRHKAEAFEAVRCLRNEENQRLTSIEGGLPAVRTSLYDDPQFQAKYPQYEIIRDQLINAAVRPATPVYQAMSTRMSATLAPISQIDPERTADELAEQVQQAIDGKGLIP

As for `OC[C@H]1O[C@H](O[C@H]2O[C@H](CO)[C@@H](O)[C@H](O)[C@H]2F)[C@H](O)[C@@H](O)[C@@H]1O` [2F-Tre, 2-deoxy-2-fluoro-trehalose], the “uptake / accumulation in Mtb cells” value in assay [1] is reported as “significant dose-dependent increase in the accumulation”. Also, the “Peak area of F-Tre peak” value is 0.096 nC*min in assay [1] (Mtb + 25 µM F-Tre), 0.206 nC*min in assay [1] (Mtb + 50 µM F-Tre), 0.362 nC*min in assay [1] (Mtb + 100 µM F-Tre) and 1.328 nC*min in assay [1] (Mtb + 200 µM F-Tre). In addition, in assay [2], the accumulation rate was 0.80 µM/h. The Mtb cytosolic concentration in assay [2] (Time 0 h) was found to be 0 ± 0 µM; in assay [2] (Time 0.5 h), 636 ± 33 µM; in assay [2] (Time 1 h), 838 ± 52 µM; in assay [2] (Time 1.5 h) it was 1144 ± 250 µM; in assay [2] (Time 2 h) it was 1717 ± 151 µM; in assay [2] (Time 4 h), 2917 ± 105 µM. In addition, the Mtb cytosolic concentration turned out to be 4597 ± 236 µM in assay [2] (Time 6 h) and 6639 ± 337 µM in assay [2] (Time 8 h). For the same molecule, the saturation of uptake entry in assay [2] is recorded as “no saturation of uptake”. In assay [3], the “accumulation in cytosolic extracts” value was “accumulate”. Besides, the “new spots in the lipid extracts (TLC)” value in assay [4] and in assay [5] was “new spots” each time. Moreover, the “additional band in the TDM region (TLC)” value in assay [4] is listed as “one additional lower polarity TDM band”. Besides, the “additional lower polarity bands than TMM (TLC)” value in assay [4] is “Two additional lower polarity bands than TMM”. In addition, the “detection in hydrolysed lipid extracts” value in assay [6] (100 µM probe, HPAEC-PAD) is “detected”. Further, the “Peak area of F-Tre peak in hydrolysed lipid extracts” value in assay [6] (Mtb + F-Tre (100 µM)) is listed as 0.662 nC*min. In assay [7], this molecule gave a Kd of 770 ± 23.2 µM. The “fold weaker binding to LpqY” value in assay [7] is given as ~8 fold.
As for `OC[C@H]1O[C@H](O[C@H]2O[C@H](CO)[C@@H](F)[C@H](O)[C@H]2O)[C@H](O)[C@@H](O)[C@@H]1O` [4F-Tre], the “uptake / accumulation in Mtb cells” value in assay [1] is listed as “No uptake”. In addition, the Mtb cytosolic concentration in assay [2] (Time 0 h), in assay [2] (Time 0.5 h), in assay [2] (Time 1 h), in assay [2] (Time 1.5 h), in assay [2] (Time 2 h) and in assay [2] (Time 4 h) was 0 µM throughout. In addition, the Mtb cytosolic concentration in assay [2] (Time 6 h) and in assay [2] (Time 8 h) was 0 µM each time. The “accumulation in cytosolic extracts” value in assay [3] was “not”. Moreover, the “presence in trehalose glycolipids” value in assay [4] and in assay [5] was “not found in any trehalose glycolipid” in each case. For the same molecule, the “new spots in the lipid extracts (TLC)” value in assay [4] and in assay [5] was “No new spots” in each case. The molecule further yielded a Kd in assay [7] of 1480 ± 75.6 µM. Besides, the affinity range entry in assay [7] (MST) is recorded as “millimolar range”. For the same molecule, the “fold weaker binding to LpqY” value in assay [7] is reported as ~16 fold.
Regarding `[N-]=[N+]=N[C@H]1[C@H](O)[C@@H](O)[C@@H](O[C@H]2O[C@H](CO)[C@@H](O)[C@H](O)[C@H]2O)O[C@@H]1CO` [4Az-Tre, 4-Deoxy-4-azido-trehalose], the Kd in assay [8] was 247 ± 7.1 µM.
Turning to `[N-]=[N+]=N[C@@H]1[C@@H](O)[C@@H](O[C@H]2O[C@H](CO)[C@@H](O)[C@H](O)[C@H]2O)O[C@H](CO)[C@H]1O` [3Az-Tre, 3-Deoxy-3-azido-trehalose], the Kd in assay [8] was 475 ± 17.2 µM.
Turning to `OC[C@H]1O[C@H](O[C@H]2O[C@H](CO)[C@@H](O)[C@H](F)[C@H]2O)[C@H](O)[C@@H](O)[C@@H]1O` [3F-Tre, 3-deoxy-3-fluoro-trehalose], the “uptake / accumulation in Mtb cells” value in assay [1] is given as “significant dose-dependent increase in the accumulation”. Also, the “Peak area of F-Tre peak” value in assay [1] (Mtb + 25 µM F-Tre) turned out to be 1.869 nC*min; in assay [1] (Mtb + 50 µM F-Tre), 3.093 nC*min; in assay [1] (Mtb + 100 µM F-Tre), 6.779 nC*min; in assay [1] (Mtb + 200 µM F-Tre), 12.530 nC*min. The accumulation rate in assay [2] is 0.94 µM/h. Moreover, the Mtb cytosolic concentration in assay [2] (Time 0 h) is 0 ± 0 µM; in assay [2] (Time 0.5 h), 250 ± 102 µM; in assay [2] (Time 1 h), 423 ± 256 µM; in assay [2] (Time 1.5 h) it was 1030 ± 335 µM; in assay [2] (Time 2 h), 1628 ± 25 µM; in assay [2] (Time 4 h) it was 3016 ± 102 µM. The Mtb cytosolic concentration in assay [2] (Time 6 h) was 5872 ± 297 µM; in assay [2] (Time 8 h) it was 7892 ± 72 µM. Also, the “increased accumulation compared to 2F- and 6F-Tre” value in assay [2] (at 8 hours) is given as ~20%. Also, in assay [2], the saturation of uptake result was “no saturation of uptake”. In assay [3], the “accumulation in cytosolic extracts” value is “accumulate”. The “new spots in the lipid extracts (TLC)” value in assay [4] and in assay [5] was “new spots” each time. Besides, in assay [4], the “additional band in the TDM region (TLC)” value is recorded as “one additional lower polarity TDM band”. Besides, the “additional lower polarity bands than TMM (TLC)” value in assay [4] is recorded as “Two additional lower polarity bands than TMM”. The molecule also registered a Kd in assay [7] of 111 ± 7.1 µM.
Turning to `[N-]=[N+]=NC[C@H]1O[C@H](O[C@H]2O[C@H](CO)[C@@H](O)[C@H](O)[C@H]2O)[C@H](O)[C@@H](O)[C@@H]1O` [6Az-Tre, 6-Deoxy-6-azido-trehalose], the Kd in assay [8] is 443 ± 5.3 µM.
As to `OC[C@H]1O[C@H](O[C@H]2O[C@H](CF)[C@@H](O)[C@H](O)[C@H]2O)[C@H](O)[C@@H](O)[C@@H]1O` [6F-Tre, 6-deoxy-6-fluoro-trehalose], in assay [1], the “uptake / accumulation in Mtb cells” value was “significant dose-dependent increase in the accumulation”. For the same molecule, the “Peak area of F-Tre peak” value in assay [1] (Mtb + 25 µM F-Tre) is listed as 0.144 nC*min; in assay [1] (Mtb + 50 µM F-Tre), 0.506 nC*min; in assay [1] (Mtb + 100 µM F-Tre), 0.866 nC*min; in assay [1] (Mtb + 200 µM F-Tre) it was 1.604 nC*min. In addition, the accumulation rate in assay [2] came to 0.82 µM/h. In addition, the Mtb cytosolic concentration in assay [2] (Time 0 h) came out at 0 ± 0 µM; in assay [2] (Time 0.5 h), 342 ± 16 µM; in assay [2] (Time 1 h) it was 797 ± 224 µM; in assay [2] (Time 1.5 h), 1392 ± 83 µM; in assay [2] (Time 2 h) it was 1804 ± 111 µM; in assay [2] (Time 4 h) it was 2945 ± 234 µM. Moreover, the Mtb cytosolic concentration was found to be 4694 ± 237 µM in assay [2] (Time 6 h) and 6843 ± 43 µM in assay [2] (Time 8 h). Further, the saturation of uptake result in assay [2] is listed as “no saturation of uptake”. Also, the “accumulation in cytosolic extracts” value in assay [3] is on record as “accumulate”. For the same molecule, the “new spots in the lipid extracts (TLC)” value in assay [4] and in assay [5] was “new spots” in each case. Further, in assay [4], the “additional band in the TDM region (TLC)” value is reported as “no additional band in the TDM region”. In addition, the “additional lower polarity bands than TMM (TLC)” value in assay [4] is listed as “one”. The same molecule registered a Kd in assay [7] of 90.3 ± 0.9 µM.
For `[N-]=[N+]=N[C@H]1[C@@H](O[C@H]2O[C@H](CO)[C@@H](O)[C@H](O)[C@H]2O)O[C@H](CO)[C@@H](O)[C@@H]1O` [2Az-Tre, 2-Deoxy-2-azido-trehalose], in assay [8], the Kd is 1916 ± 7.7 µM.
